Patent US8835503B2, “Pharmaceutical composition containing GLUR2-lacking AMPAR antagonist for preventing or treating psychiatric illnesses” (SNU R&DB Foundation, priority 2009, dated 2014)

System: fear memory renewal
Assay: Blocking of fear memory renewal by NASPM administered into the amygdala (freezing response)
Assay type: in vivo, rat
Details: for fear responses (freezing) in memory renewal test: 15 minutes before measuring fear memory, vs control group
Description: For fear memory learning, the rats were exposed to sound stimuli of a single tone (2.8 kHz, 85 dB) for 30 seconds, and subjected to an electric foot shock (1.0 mA) for 1 second at the end of said 30-second period. The sound stimuli and the electric foot shock were repeated 3 times at 100 second intervals. 1 minute later after the last electric foot shock, the rats were returned to their home cages. On day 2, fear memory learning was performed in the same way.
From day 3, memory extinction was performed in a context different from that of the fear memory learning On day 4, the rats were exposed to only sound stimuli 20 times at 100 second intervals without an electric foot shock. On days 5 and 6, the sound stimuli were repeated 15 times at 100 second intervals.
On day 7, memory renewal test was performed. The rats experienced memory extinction were placed in the place of the fear memory learning for 10 minutes, and then, memory renewal was induced by exposing the rats to sound stimuli for 30 seconds.
The experiment was performed using the rats which experienced fear memory learning, memory extinction and memory renewal in accordance with the method described in Example 1-1. White rats, 8-9 weeks old (Sprague-Dawley Rat, Male; Samtako, Korea), were used.
The rats were anesthetized by intraperitoneal injection of pentobarbital sodium (50 mg/kg; Entobal, Hanlim Pharma, Co., Ltd., Korea). After fully anesthetized, the rats were mounted on a stereotaxic apparatus (David Kopf Instruments, Tujunga, Calif., USA), and then, stainless steel cannulas of 26 gauge (Model C315G, Plastic Products, Roanoke, Va., USA) were implanted bilaterally into the amygdala (AP; […], ML; +/−5.15, DV; −7.0 mm) by operation. A 32 gauge dummy cannula was inserted into each cannula to prevent clogging. After a recovery period of at least 1 week, the rats were subjected to fear memory learning, memory extinction and memory renewal tests. […]
Conditioned freezing was defined as immobility except for respiratory movements, and was quantified by trained observers that were blind to the experimental groups.

With N-naphthylspermine [NASPM] the “fear responses (freezing) in memory renewal test” value (10 μg NASPM into the amygdala) was “insignificant effect”, the “fear responses (freezing) in memory renewal test” value (40 μg NASPM into the amygdala) was “remarkably less fear responses” and the “blocking of fear memory renewal” value (administered in the amygdala, 10 μg and 40 μg) was “blocks the fear memory renewal in a concentration-dependent manner”.
